Laboratory results taken from US10683520B2, “Polycarboxylic acid extraction” (PURAC BIOCHEM BV, priority 2011, dated 2020).

Assay: Forward extraction of acid from salt-containing aqueous feed into methyl-isobutylketone and back extraction into water
Type: physicochemical
Conditions: 20° C.; for DBE (distribution ratio in back extraction, [acid]organic/[acid]water): MIBK organic phase / pure water; for [acid] aqueous fraction after back extraction: feed with 15 wt. % MgCl2 (acid in feed per Table 1.1), back extraction into pure water; for [acid] aqueous fraction after back extraction / DFE (distribution ratio in forward extraction, [acid]organic/[acid]water) / concentration ratio (acid concentration in product / acid concentration in feed): MIBK; for DFE (distribution ratio in forward extraction, [acid]organic/[acid]water) / concentration ratio (acid concentration in product / acid concentration in feed): feed with 15 wt. % MgCl2
From the text: Forward extraction and back extraction as used in the method of the invention are based on the difference in solubility of the carboxylic acid in water and the organic solvent at different temperatures. The solubility of a compound in one solvent relative to another solvent can be expressed in terms of the distribution ratio (DR). […] The distribution ratio may be defined as the ratio of the carboxylic acid concentration dissolved in the organic phase ([carboxylic acid]organic) over the concentration of the carboxylic acid dissolved in water ([carboxylic acid]water), provided that the two phases are in equilibrium with each other: DR=[carboxylic acid]organic/[carboxylic acid]water (1)
The general procedure is set up to mimic a continuous extraction process.
A feed solution was prepared comprising acid and salt in the amounts stipulated in the table. The solutions were stirred overnight.
1000 g of this feed solution was mixed with approximately 100 g of methyl-isobutylketone as solvent and stirred at 20° C. for minimum of 15 minutes. The mixture was transferred to a separation funnel where phases were separated. Samples of both phases were taken for analysis. Then approximately 100 g of organic phase was mixed with 10 g of pure water and stirred for minimum of 15 min at 20° C. Subsequently the whole mixture is again transferred to the separation funnel, phases are left to separate and samples of both phases are taken. Samples were analysed on acid content.
These tables also give the concentration ratio, which is the ratio between the acid concentration in the product and the acid concentration in the feed.
The composition of the starting solution and the acid concentration in the products is in Table 2.1 below.

| SMILES | DBE (distribution ratio in back extraction, [acid]organic/[acid]water) | [acid] aqueous fraction after back extraction | DFE (distribution ratio in forward extraction, [acid]organic/[acid]water) | concentration ratio (acid concentration in product / acid concentration in feed) |
| --- | --- | --- | --- | --- |
| C=C(CC(=O)O)C(=O)O [Itaconic acid, itaconic acid] | 1.07 | 2.8 wt. % | 2.83 | 1.9 |
| O=C(O)/C=C/C(=O)O [Fumaric acid, fumaric acid] | 0.24 | 0.21 wt. % | 1.75 | 1.8 |
